Key:
Colon Cancer = assay: NCI-60 screening (SRB), subpanel; assay type: cell-based; details: for TGI MG_MID / GI50 / CC50: Colon Cancer subpanel, five-dose; for SI (TGI): Colon Cancer, MG_MID60/subpanel MG_MID; for GI50 / CC50: Homo sapiens; for GI50: read-out: GI50 MG_MID; for CC50: read-out: LC50 MG_MID
In short: (§1)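 Run per NCI protocol: cells exposed to compound for 48 h, growth measured spectrophotometrically by sulforhodamine B protein staining versus untreated controls. GI50, TGI and LC50 derived per cell line; subpanel MG_MID averages these, insensitive lines counted at the highest concentration tested.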

Leukemia = assay: NCI-60 screening (SRB), subpanel; assay type: cell-based; details: for SI (TGI): Leukemia, MG_MID60/subpanel MG_MID; for CC50: Homo sapiens, read-out: LC50 MG_MID; for CC50 / TGI MG_MID: Leukemia subpanel, five-dose
In short: as §1

Melanoma = assay: NCI-60 screening (SRB), subpanel; assay type: cell-based; details: for GI50 / CC50: Homo sapiens; for GI50 / CC50 / TGI MG_MID: Melanoma subpanel, five-dose; for GI50: read-out: GI50 MG_MID; for CC50: read-out: LC50 MG_MID; for SI (TGI): Melanoma, MG_MID60/subpanel MG_MID
In short: as §1

NSC lung cancer = assay: NCI-60 screening (SRB), subpanel; assay type: cell-based; details: for GI50 / CC50: Homo sapiens; for GI50 / CC50 / TGI MG_MID: NSC lung cancer subpanel, five-dose; for GI50: read-out: GI50 MG_MID; for CC50: read-out: LC50 MG_MID; for SI (TGI): NSCL cancer, MG_MID60/subpanel MG_MID
In short: as §1

Prostate cancer = assay: NCI-60 screening (SRB), subpanel; assay type: cell-based; details: for GI50 / CC50: Homo sapiens; for GI50 / CC50 / TGI MG_MID: Prostate cancer subpanel, five-dose; for GI50: read-out: GI50 MG_MID; for CC50: read-out: LC50 MG_MID; for SI (TGI): Prostate cancer, MG_MID60/subpanel MG_MID
In short: as §1

Renal Cancer = assay: NCI-60 screening (SRB), subpanel; assay type: cell-based; details: for GI50 / LC50 (50% net cell kill): Homo sapiens; for GI50 / LC50 (50% net cell kill) / TGI MG_MID: Renal cancer subpanel, five-dose; for GI50: read-out: GI50 MG_MID; for LC50 (50% net cell kill): read-out: LC50 MG_MID; for SI (TGI): Renal Cancer, MG_MID60/subpanel MG_MID
In short: as §1

SNB-75 = assay: NCI-60 screening (SRB); assay type: cell-based, human; details: five-dose; for GI50 / CC50: Homo sapiens; for CC50: read-out: LC50 (the source's name)
M14 = assay: NCI-60 screening (SRB); assay type: cell-based, human; details: five-dose; for GI50 / CC50: Homo sapiens; for CC50: read-out: LC50 (the source's name)
MDA-MB-31/ATCC = assay: NCI-60 screening (SRB); assay type: cell-based, human; details: five-dose; for GI50 / CC50: Homo sapiens; for CC50: read-out: LC50 (the source's name)
RPMI cells = assay: DAPI staining, nuclear morphology; assay type: cell-based, human; details: 24 h
Protocol: (§2) The cells were cultured in 24-well plates at 2 × 10^5 cells/well. Two samples (compounds 4 and 6) of three different concentrations (0.1, 1, and 5 μM) and three concentrations of DMSO (0.1, 1, 5 μM) were used to stimulate the cells. The immunofluorescent staining technique was performed according to the protocol in [92]. Thus, after 24 h of stimulation, the cells were fixed by adding 4% paraformaldehyde and incubating at room temperature for one hour. After fixation, cell permeability was performed with 2% Triton X solution in phosphate-buffered saline (PBS). After 30 min of incubation at room temperature, blocking of permeabilization was performed with 0.01% Triton X solution and incubation at RT for one hour. DAPI staining was used in a concentration of 300 nM to visualize the nuclei. The cells were analyzed by fluorescence microscope at 40× magnification using CellSens V1.15 software (Olympus, Tokyo, Japan) and Image J software.

SK-MEL-28 cells = assay: DAPI staining, nuclear morphology; assay type: cell-based, human; details: SK-MEL28, 24 h
Protocol: as §2

A375 cells = assay: Cell morphology and confluence; assay type: cell-based, human; details: 24 h
Protocol: A morphological examination of the tested cells was conducted in order to provide additional data for the investigated compounds in terms of their biological activity.

chorioallantoic membrane = assay: Chorioallantoic membrane (CAM) angiogenesis assay; assay type: in vivo, chicken; details: 1 µM in 0.5% DMSO
Protocol: CAM test also allows the assessment of a drug’s activity on tumor proliferation and distant metastasis, as well as drug toxicity. […] No anomalies were noticed in the angiogenic process after treatment with 0.5% DMSO in distilled water used as control.
The basic CAM assay protocol makes use of fertilized chicken eggs, incubated at 37 °C, under controlled humidity. On the third day of incubation (embryonic day of development, EDD), a small opening was made at one end of the eggs and 5–6 mL of albumen were removed, thus facilitating the separation of the chorioallantoic membrane. On EDD 4, a window was cut on the upper side of the egg and subsequently resealed, returning the specimens to the incubator. On EDD 7 (0 h), 10 µL of each test solution were administered inside a plastic ring previously applied on the intensely vascularized surface of the CAM [93]. All compounds were tested at a concentration of 1 µM in DMSO 0.5%, which also represented the control sample. All samples were daily applied in the same volume, for 72 h. For each analyzed sample, 5 eggs were used, and all samples were applied in triplicate. Macroscopic evaluation was daily performed in ovo by means of stereomicroscopy (ZEISS SteREO Discovery.V8, Göttingen, Germany), and all images were registered and processed by Axiocam 105 color, AxioVision SE64. Rel. 4.9.1 Software, (ZEISS Göttingen, Germany), ImageJ (ImageJ Version 1.50e, https://imagej.nih.gov/ij/index.html, accessed on 3 June 2021) and GIMP software (GIMP v 2.8, https://www.gimp.org/, accessed on 3 June 2021).

SR = assay: NCI-60 screening (SRB); assay type: cell-based, human; details: five-dose; for GI50 / CC50: Homo sapiens; for CC50: read-out: LC50 (the source's name)
[1] = EDD7 to EDD10, up to 72 h post-treatment

| SMILES | TGI MG_MID (Colon Cancer) [µM] | SI (TGI) (Colon Cancer) | GI50 (Colon Cancer) [µM] | CC50 (Colon Cancer) [µM] | SI (TGI) (Leukemia) | GI50 (Melanoma) [µM] | CC50 (Melanoma) [µM] | TGI MG_MID (Melanoma) [µM] | SI (TGI) (Melanoma) | GI50 (NSC lung cancer) [µM] | CC50 (NSC lung cancer) [µM] | TGI MG_MID (NSC lung cancer) [µM] | SI (TGI) (NSC lung cancer) | GI50 (Prostate cancer) [µM] | CC50 (Prostate cancer) [µM] | SI (TGI) (Prostate cancer) | GI50 (Renal Cancer) [µM] | LC50 (50% net cell kill) (Renal Cancer) [µM] | SI (TGI) (Renal Cancer) | TGI MG_MID (Renal Cancer) [µM] | further results |
| --- | --- | --- | --- | --- | --- | --- | --- | --- | --- | --- | --- | --- | --- | --- | --- | --- | --- | --- | --- | --- | --- |
| CCN1CCN(C(=O)[C@]23CC[C@@H](C)[C@H](C)[C@H]2C2=CC[C@@H]4[C@@]5(C)CCC(=O)C(C)(C)[C@@H]5CC[C@@]4(C)[C@]2(C)CC3)CC1 [Compound 4, N-(3-oxo-ursan-12-en-28-oyl)-ethylpiperazine] | 2.03 | 1.35 | 0.94 | 5.92 | 1.12 | 0.93 | 4.94 | 1.93 | 1.42 | 1.18 | 17 | 3.60 | 0.76 | 1.27 | 18.4 | 0.62 | 0.95 | 8.38 | 1.08 | 2.53 | TGI MG_MID (Prostate cancer): 4.40 µM; GI50 (SNB-75): 1.03 µM; CC50 (SNB-75): 17.2 µM; TGI (SNB-75): 3.82 µM; GI50 (M14): 0.794 µM; CC50 (M14): 3.28 µM; TGI (M14): 1.61 µM; GI50 (MDA-MB-31/ATCC): 0.779 µM; CC50 (MDA-MB-31/ATCC): 2.88 µM; TGI (MDA-MB-31/ATCC): 1.50 µM; nuclear morphology (DAPI) (RPMI cells; 0.1 µM): massive chromatin condensation; nuclear morphology (DAPI) (RPMI cells; 1 µM): visible nuclear fragmentation; nuclear morphology (DAPI) (RPMI cells; 5 µM (highest concentration)): blebbing of the nuclear membrane; nuclear morphology (DAPI) (SK-MEL-28 cells; 0.1 μM): intense condensation of the cell nuclei; nuclear morphology (DAPI) (SK-MEL-28 cells; 1 μM): chromatin condensation is accompanied by the formation of apoptotic bodies; nuclear morphology (DAPI) (SK-MEL-28 cells; 5 μM): incipient nuclear fragmentation; cell morphology and confluence (A375 cells; 0.1 μM): caused cell death; cell morphology and confluence (A375 cells; 1 and 5 μM): visible loss of cell confluence; effect on angiogenesis (CAM) (chorioallantoic membrane; [1]): no alterations were noticed in terms of angiogenesis |
| CCN1CCN(C(=O)[C@]23CCC(C)(C)C[C@H]2C2=CC[C@@H]4[C@@]5(C)C/C(=C/c6cccnc6)C(=O)C(C)(C)[C@@H]5CC[C@@]4(C)[C@]2(C)CC3)CC1 [Compound 6] | 3.51 | 1.99 | 1.52 | 25.4 | 0.30 | 1.54 | 9.2 | 3.21 | 1.96 | 1.91 | 29.7 | 5.83 | 1.08 | 1.42 | 8.01 | 1.89 | 1.97 | 20.2 | 0.96 | 6.54 | GI50 (SR): 0.959 µM; CC50 (SR): > 100 µM; TGI (SR): 5.13 µM; CC50 (Leukemia): > 100 µM; TGI MG_MID (Leukemia): 5.10 µM; TGI MG_MID (Prostate cancer): 3.34 µM; GI50 (M14): 1.6 µM; CC50 (M14): 6.2 µM; TGI (M14): 3.15 µM; GI50 (MDA-MB-31/ATCC): 1.4 µM; CC50 (MDA-MB-31/ATCC): 5.78 µM; TGI (MDA-MB-31/ATCC): 2.84 µM; nuclear morphology (DAPI) (RPMI cells; 0.1 µM): nuclear fragmentation; nuclear morphology (DAPI) (RPMI cells; 1 µM): chromatin condensation; nuclear morphology (DAPI) (RPMI cells; 5 µM (highest concentration)): apoptotic bodies; nuclear morphology (DAPI) (SK-MEL-28 cells; 0.1, 1, 5 μM): dose-dependent effect was recorded in terms of membrane blebbing, nuclear condensation, and fragmentation; cell morphology and confluence (A375 cells; all concentrations (0.1, 1, 5 μM)): noticeable decrease in cell confluence; effect on angiogenesis (CAM) (chorioallantoic membrane; [1]): did not significantly alter the angiogenesis process; effect on angiogenesis (CAM) (chorioallantoic membrane; after 24 h): weak antiangiogenic process |
| CCN1CCN(C(=O)[C@]23CC[C@@H](C)[C@H](C)[C@H]2C2=CC[C@@H]4[C@@]5(C)C/C(=C/c6cccnc6)C(=O)C(C)(C)[C@@H]5CC[C@@]4(C)[C@]2(C)CC3)CC1 [Compound 9, N-(2-{3-Pyridinylidene}-3-oxoursan-12-en-28-oyl)-ethylpiperazine] | 4.00 | 1.32 | 1.81 | 33.7 | 0.75 | 1.56 | 25.1 | 3.66 | 1.45 | 2.12 | 47.1 | 6.81 | 0.78 | 1.79 | 9.23 | 0.89 | 1.97 | 21.3 | 0.95 | 5.57 | GI50 (SR): 2.18 µM; CC50 (SR): > 100 µM; TGI (SR): 6.35 µM; CC50 (Leukemia): > 100 µM; TGI MG_MID (Leukemia): 7.09 µM; GI50 (SNB-75): 1.57 µM; CC50 (SNB-75): 39.9 µM; TGI (SNB-75): 8.91 µM; GI50 (MDA-MB-31/ATCC): 1.75 µM; CC50 (MDA-MB-31/ATCC): 7.39 µM; TGI (MDA-MB-31/ATCC): 3.59 µM |

— publication PMC8536124 (International Journal of Molecular Sciences, 2021)
